Measurements from patent publication US11964973B2 (priority 2019, dated 2024).
Read-outs that look alike come from different tables or passages of the source.

Legend:
[1] = molecular target: DGKα (Homo sapiens (Human), UniProt P23743); experiment: biochemical; format: biochemical
[2] = molecular target: human DGKζ (Homo sapiens (Human), UniProt Q13574); experiment: biochemical; format: biochemical
[3] = system: Human venous whole blood (IFN-γ); experiment: Human whole blood IFN-γ assay; format: cell-based
Method: Assay 10: Human Whole Blood IFN-γ Assay
Human venous whole blood (22.5 μL per well), obtained from healthy donors, was pre-treated with compounds for one hour at 37° C. in a humidified 95% air/5% CO2 incubator. The blood was stimulated with 2.5 μL anti-human CD3 and anti-CD28 mAb at a final concentration of 1 μg/mL each for 24 hours at 37° C. IFN-γ in the supernatants was measured using AlphLISA kit (Cat #AL217).

[4] = system: human venous whole blood, CD8 positive population (pERK); experiment: DGK human whole blood pERK assay; format: cell-based; details: human whole blood, CD8 positive population; read-out: DGK HWB pERK IC50
Method in brief: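 Read-out is the pERK-positive fraction of CD8+ cells measured by flow cytometry. Donor venous blood (heparin) saw compound for one hour at 37° C before a 15-minute anti-CD3 challenge (1 μg/mL final) with cross-linking anti-mouse IgG.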

[5] = liposome (LIPGLO) assay, read-out: DGKα LIPGLO IC50
[6] = liposome (LIPGLO) assay, read-out: DGKζ LIPGLO IC50
[7] = human whole blood, anti-CD3 plus anti-CD28, 24 hours, read-out: INFg Whole Blood Normalized Agonist EC50
[8] = Homo sapiens, 24 h, human whole blood, anti-CD3 plus anti-CD28, 24 hours, read-out: INFg Whole Blood Normalized Agonist EC50
[9] = read-out: INFg Whole Blood Normalized Agonist EC50, human whole blood, anti-CD3 plus anti-CD28, 24 hours

Chain of DGKα (P23743 whole entry, looked up): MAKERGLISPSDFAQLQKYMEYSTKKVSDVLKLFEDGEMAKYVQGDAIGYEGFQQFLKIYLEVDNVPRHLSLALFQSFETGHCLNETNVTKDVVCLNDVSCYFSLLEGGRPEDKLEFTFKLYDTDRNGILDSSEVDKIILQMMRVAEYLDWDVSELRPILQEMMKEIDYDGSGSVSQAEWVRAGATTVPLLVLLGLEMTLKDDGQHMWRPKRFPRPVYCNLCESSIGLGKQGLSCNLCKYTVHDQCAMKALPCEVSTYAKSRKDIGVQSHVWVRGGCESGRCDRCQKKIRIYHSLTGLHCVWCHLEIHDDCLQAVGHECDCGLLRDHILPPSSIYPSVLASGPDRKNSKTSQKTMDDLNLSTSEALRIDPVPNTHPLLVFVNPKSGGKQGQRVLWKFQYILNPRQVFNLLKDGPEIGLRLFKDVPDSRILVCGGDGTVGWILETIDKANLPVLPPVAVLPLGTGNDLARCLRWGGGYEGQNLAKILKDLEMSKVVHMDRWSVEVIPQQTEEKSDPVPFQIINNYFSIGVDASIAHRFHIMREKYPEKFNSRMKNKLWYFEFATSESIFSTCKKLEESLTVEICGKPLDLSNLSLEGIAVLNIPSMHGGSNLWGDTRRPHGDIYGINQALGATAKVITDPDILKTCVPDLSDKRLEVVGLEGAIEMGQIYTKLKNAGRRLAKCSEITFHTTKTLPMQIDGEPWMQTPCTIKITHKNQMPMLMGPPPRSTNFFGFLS
Chain of human DGKζ (Q13574 whole entry, looked up): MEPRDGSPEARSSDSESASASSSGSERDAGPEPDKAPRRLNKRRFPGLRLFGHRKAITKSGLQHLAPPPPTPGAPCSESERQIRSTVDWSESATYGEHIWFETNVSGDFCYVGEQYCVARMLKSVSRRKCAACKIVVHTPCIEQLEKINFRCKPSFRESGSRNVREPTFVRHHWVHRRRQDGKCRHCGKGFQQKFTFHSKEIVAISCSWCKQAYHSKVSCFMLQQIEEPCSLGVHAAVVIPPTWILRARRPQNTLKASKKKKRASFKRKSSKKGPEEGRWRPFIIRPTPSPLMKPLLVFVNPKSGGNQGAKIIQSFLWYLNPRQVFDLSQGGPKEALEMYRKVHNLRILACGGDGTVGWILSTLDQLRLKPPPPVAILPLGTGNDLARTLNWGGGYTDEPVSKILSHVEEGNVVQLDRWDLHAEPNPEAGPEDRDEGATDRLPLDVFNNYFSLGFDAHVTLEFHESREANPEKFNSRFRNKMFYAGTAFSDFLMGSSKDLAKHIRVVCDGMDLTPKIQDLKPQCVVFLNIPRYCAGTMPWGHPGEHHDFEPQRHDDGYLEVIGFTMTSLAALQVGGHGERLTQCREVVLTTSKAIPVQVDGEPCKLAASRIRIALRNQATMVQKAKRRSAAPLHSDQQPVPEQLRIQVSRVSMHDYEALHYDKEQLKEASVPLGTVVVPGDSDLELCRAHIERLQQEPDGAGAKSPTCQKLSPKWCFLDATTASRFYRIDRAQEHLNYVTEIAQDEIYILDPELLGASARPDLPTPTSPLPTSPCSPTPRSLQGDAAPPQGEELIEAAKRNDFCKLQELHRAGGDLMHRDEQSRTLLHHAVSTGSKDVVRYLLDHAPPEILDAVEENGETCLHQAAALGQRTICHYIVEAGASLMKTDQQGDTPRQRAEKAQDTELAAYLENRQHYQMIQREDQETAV

CCC(C)(C)c1ccc(O[C@H]2CCN(c3cc(=O)n(C)c4ccc(C#N)nc34)C[C@H]2C)cc1 (single isomer, unassigned) [Example 170]
IC50 [1, 5]: 370 nM | IC50 [2, 6]: 1100 nM | EC50 [3, 7]: 860 nM | IC50 [4]: 540 nM

Cc1cc(OC2CCN(c3cc(=O)n(C)c4ccc(C#N)nc34)CC2)nc(C(C)C)n1 [Example 78, 8-(4-((2-isopropyl-6-methylpyrimidin-4-yl)oxy)piperidin-1-yl)-5-methyl-6-oxo-5,6-dihydro-1,5-naphthyridine-2-carbonitrile]
IC50 [1, 5]: 810 nM | IC50 [2, 6]: 16000 nM | IC50 [4]: 20000 nM

Cn1c(=O)cc(N2CCC(Oc3ccnc(C(F)(F)F)n3)CC2)c2nc(C#N)ccc21 [Example 76, 5-methyl-6-oxo-8-(4-((2-(trifluoromethyl)pyrimidin-4-yl)oxy)piperidin-1-yl)-5,6-dihydro-1,5-naphthyridine-2-carbonitrile]
IC50 [1, 5]: 11000 nM | IC50 [2, 6]: 34000 nM | EC50 [3, 8]: 20000 nM | IC50 [4]: 20000 nM

CC(C)Oc1ccc(OC2CCN(c3cc(=O)n(C)c4ccc(C#N)nc34)CC2)nc1 [Example 66, 8-(4-((5-isopropoxypyridin-2-yl)oxy)piperidin-1-yl)-5-methyl-6-oxo-5,6-dihydro-1,5-naphthyridine-2-carbonitrile]
IC50 [1, 5]: 1200 nM | IC50 [2, 6]: 4000 nM | EC50 [3, 8]: 820 nM | IC50 [4]: 2700 nM

Cn1c(=O)cc(N2CCC(Oc3ccc(C4CCCC4)cc3)CC2)c2nc(C#N)ccc21 [Example 58, 8-(4-(4-cyclopentylphenoxy)piperidin-1-yl)-5-methyl-6-oxo-5,6-dihydro-1,5-naphthyridine-2-carbonitrile]
IC50 [1, 5]: 340 nM | IC50 [2, 6]: 2900 nM | EC50 [3, 8]: 5900 nM

Cn1c(=O)cc(N2CCC(Oc3ccc(C4CC4)cc3)CC2)c2nc(C#N)ccc21 [Example 59, 8-(4-(4-cyclopropylphenoxy)piperidin-1-yl)-5-methyl-6-oxo-5,6-dihydro-1,5-naphthyridine-2-carbonitrile]
IC50 [1, 5]: 1000 nM | IC50 [2, 6]: 3700 nM | EC50 [3, 8]: 6400 nM

CC[C@@H]1CN(c2cc(=O)n(C)c3ccc(C#N)nc23)CC[C@H]1Oc1cccc(C(F)(F)F)c1 (single isomer, unassigned) [Example 141]
IC50 [1, 5]: 68 nM | IC50 [2, 6]: 260 nM | EC50 [3, 7]: 500 nM

C[C@@H]1CN(c2cc(=O)n(C)c3ccc(C#N)nc23)CC[C@H]1Oc1ccc(C(F)(F)F)cc1F [Example 112, 8-((3R,4R)-4-(2-fluoro-4-(trifluoromethyl)phenoxy)-3-methylpiperidin-1-yl)-5-methyl-6-oxo-5,6-dihydro-1,5-naphthyridine-2-carbonitrile]
IC50 [1, 5]: 340 nM | IC50 [2, 6]: 7500 nM | EC50 [3, 8]: 4100 nM

CCC(C)(C)c1ccc(O[C@H]2CCN(c3cc(=O)n(C)c4ccc(C#N)nc34)C[C@H]2C)cc1 [Example 169, 5-methyl-8-((3R,4S)-3-methyl-4-(4-(tert-pentyl)phenoxy)piperidin-1-yl)-6-oxo-5,6-dihydro-1,5-naphthyridine-2-carbonitrile]
IC50 ([1]; read-out: DGKα LIPGLO IC50): 600 nM | IC50 ([2]; read-out: DGKζ LIPGLO IC50): 1400 nM | EC50 [3, 8]: 1700 nM

Cc1ccc(O[C@@H]2CCN(c3cc(=O)n(C)c4ccc(C#N)nc34)C[C@H]2C)cc1 [Example 119, 5-methyl-8-((3R,4R)-3-methyl-4-(p-tolyloxy)piperidin-1-yl)-6-oxo-5,6-dihydro-1,5-naphthyridine-2-carbonitrile]
IC50 [1, 5]: 240 nM | IC50 [2, 6]: 20000 nM | EC50 [3, 8]: 6600 nM

CC[C@@H]1CN(c2cc(=O)n(C)c3ccc(C#N)nc23)CC[C@@H]1Oc1cccc(C(C)(C)C)c1 [Example 166, 8-((3R,4S)-4-(3-(tert-butyl)phenoxy)-3-ethylpiperidin-1-yl)-5-methyl-6-oxo-5,6-dihydro-1,5-naphthyridine-2-carbonitrile]
IC50 [1, 5]: 46 nM | IC50 [2, 6]: 1600 nM | EC50 [3, 9]: 790 nM

Cc1cccc(O[C@@H]2CCN(c3cc(=O)n(C)c4ccc(C#N)nc34)C[C@H]2C)c1 (single isomer, unassigned) [Example 109]
IC50 [1, 5]: 120 nM | IC50 [2, 6]: 29000 nM | EC50 [3, 7]: 4200 nM

C[C@@H]1CN(c2c(C#N)c(=O)n(C)c3ccc(C#N)nc23)CC[C@@H]1Oc1ccc(C(F)(F)F)cc1 [Example 190, 5-methyl-8-((3R,4S)-3-methyl-4-(4-(trifluoromethyl)phenoxy)piperidin-1-yl)-6-oxo-5,6-dihydro-1,5-naphthyridine-2,7-dicarbonitrile]
IC50 ([1]; Table A, liposome (LIPGLO) assay, read-out: DGKα): 2200 nM | IC50 ([2]; Table A, liposome (LIPGLO) assay, read-out: DGKζ): 3100 nM | EC50 ([3]; human whole blood IFN-γ, read-out: INFg Whole Blood): 20000 nM

C[C@@H]1CN(c2cc(=O)n(C)c3ccc(C#N)nc23)CC[C@H]1Oc1ccc(C2CCCC2)cc1 (single isomer, unassigned) [Example 102]
IC50 [1, 5]: 68 nM | IC50 [2, 6]: 83000 nM | EC50 [3, 7]: 3300 nM

Cc1cccc(O[C@@H]2CCN(c3c(C#N)c(=O)n(C)c4ccc(C#N)nc34)C[C@H]2C)c1 [Example 136, 5-methyl-8-((3R,4R)-3-methyl-4-(m-tolyloxy)piperidin-1-yl)-6-oxo-5,6-dihydro-1,5-naphthyridine-2,7-dicarbonitrile]
IC50 ([1]; DGKα LIPGLO IC50): 810 nM | IC50 [2, 6]: ≥ 250000 nM | EC50 [3, 8]: 20000 nM

CC(C)c1ccc(O[C@H]2CCN(c3cc(=O)n(C)c4ccc(C#N)nc34)C[C@H]2C)cc1 [Example 176, 8-((3R,4S)-4-(4-isopropylphenoxy)-3-methylpiperidin-1-yl)-5-methyl-6-oxo-5,6-dihydro-1,5-naphthyridine-2-carbonitrile]
IC50 [1, 5]: 41 nM | IC50 [2, 6]: 1300 nM | EC50 [3, 8]: 2300 nM

CC[C@@H]1CN(c2cc(=O)n(C)c3ccc(C#N)nc23)CC[C@@H]1Oc1cccc(C(C)(C)C)c1 [Example 165, 8-((3R,4S)-4-(3-(tert-butyl)phenoxy)-3-ethylpiperidin-1-yl)-5-methyl-6-oxo-5,6-dihydro-1,5-naphthyridine-2-carbonitrile]
IC50 [1, 5]: 96 nM | IC50 [2, 6]: 1200 nM | EC50 [3, 9]: 840 nM

Cn1c(=O)cc(N2CCC(Oc3ccc(Cl)cn3)CC2)c2nc(C#N)ccc21 [Example 67, 8-(4-((5-chloropyridin-2-yl)oxy)piperidin-1-yl)-5-methyl-6-oxo-5,6-dihydro-1,5-naphthyridine-2-carbonitrile]
IC50 [1, 5]: 1600 nM | IC50 [2, 6]: 7100 nM | EC50 [3, 8]: 2700 nM

CC[C@@H]1CN(c2cc(=O)n(C)c3ccc(C#N)nc23)CC[C@H]1Oc1ccc(OC(C)(C)C)cc1 (single isomer, unassigned) [Example 159]
IC50 [1, 5]: 130 nM | IC50 [2, 6]: 2300 nM | EC50 [3, 8]: 4200 nM

CC[C@@H]1CN(c2cc(=O)n(C)c3ccc(C#N)nc23)CC[C@H]1Oc1cccc(C(F)(F)F)c1 (single isomer, unassigned) [Example 142]
IC50 [1, 5]: 4700 nM | IC50 [2, 6]: 1100 nM | EC50 [3, 7]: 3000 nM

CCCc1ccc(OC2CCN(c3cc(=O)n(C)c4ccc(C#N)nc34)CC2)cc1 [Example 57, 5-methyl-6-oxo-8-(4-(4-propylphenoxy)piperidin-1-yl)-5,6-dihydro-1,5-naphthyridine-2-carbonitrile]
IC50 [1, 5]: 730 nM | IC50 [2, 6]: 6100 nM | EC50 [3, 8]: 4300 nM

CC(C)c1cccc(O[C@@H]2CCN(c3cc(=O)n(C)c4ccc(C#N)nc34)C[C@H]2C)c1 [Example 122, 8-((3R,4R)-4-(3-isopropylphenoxy)-3-methylpiperidin-1-yl)-5-methyl-6-oxo-5,6-dihydro-1,5-naphthyridine-2-carbonitrile]
IC50 [1, 5]: 17 nM | IC50 [2, 6]: 28000 nM | EC50 [3, 8]: 5800 nM

CC(C)c1ccc(O[C@H]2CCN(c3cc(=O)n(C)c4ccc(C#N)nc34)C[C@H]2C)cc1 (single isomer, unassigned) [Example 177]
IC50 [1, 5]: 140 nM | IC50 [2, 6]: 1100 nM | EC50 [3, 8]: 3500 nM

C[C@@H]1CN(c2cc(=O)n(C)c3ccc(C#N)nc23)CC[C@H]1Oc1ccc(F)cc1C(F)(F)F (single isomer, unassigned) [Example 118]
IC50 [1, 5]: 250 nM | IC50 [2, 6]: 52000 nM | EC50 [3, 7]: 4700 nM

CC[C@@H]1CN(c2cc(=O)n(C)c3ccc(C#N)nc23)CC[C@H]1Oc1ccc(OC(C)(C)C)cc1 [Example 158, 8-((3R,4R)-4-(4-(tert-butoxy)phenoxy)-3-ethylpiperidin-1-yl)-5-methyl-6-oxo-5,6-dihydro-1,5-naphthyridine-2-carbonitrile]
IC50 ([1]; read-out: DGKα LIPGLO IC50): 360 nM | IC50 ([2]; read-out: DGKζ LIPGLO IC50): 1900 nM | EC50 [3, 8]: 2000 nM

Cc1ccc(O[C@@H]2CCN(c3cc(=O)n(C)c4ccc(C#N)nc34)C[C@H]2C)cc1 (single isomer, unassigned) [Example 120]
IC50 [1, 5]: 350 nM | IC50 [2, 6]: 73000 nM | EC50 [3, 8]: 4700 nM

C[C@@H]1CN(c2cc(=O)n(C)c3ccc(C#N)nc23)CC[C@H]1Oc1ccc(F)cc1C(F)(F)F [Example 116, 8-((3R,4R)-4-(4-fluoro-2-(trifluoromethyl)phenoxy)-3-methylpiperidin-1-yl)-5-methyl-6-oxo-5,6-dihydro-1,5-naphthyridine-2-carbonitrile]
IC50 [1, 5]: 450 nM | IC50 [2, 6]: 13000 nM | EC50 [3, 8]: 4700 nM
